# Experimental data: patent US20200038414A1, “METHODS OF TREATING CONSTIPATION USING AMINOSTEROL COMPOSITIONS” (Enterin, Inc., priority 2018, published 2020)
# “And” between values parts separate entries of the source, which are not always exact repeats. Equal values may be shown once.
# What was measured:
# [1] = system: PD patients with constipation; experiment: Phase 2 trial Stage 2: bowel function under daily oral dosing (escalation, fixed dose, randomization, wash-out); format: in vivo, human; settings: for CSBM/week: randomized cohort
# Experimental: (§1) In Stage 2, 34 patients were evaluated.
# The primary efficacy outcome variable was whether or not a subject was a “success” or “failure”. This is an endpoint based on subject diary entries for the “fixed dose” period prior to the endpoint assessment defined as average complete stool frequency increase by 1 or more over baseline, or 3 or more complete spontaneous stools/week. The subject was deemed a “success” if s/he met one or more of the criteria listed above, otherwise the subject was deemed a “failure”. The primary analysis was based on all subjects with a baseline assessment and an assessment at the end of the “fixed-dose” period and was a comparison of the proportion of successes with 0.10 (the null hypothesis corresponding to no treatment effect).
# [2] = system: PD patients with constipation; experiment: Phase 2 trial Stage 1: adverse events; format: in vivo, human; settings: Stage 1, dosed 10
# Excerpt: (§2) Tolerability limits included diarrhea or vomiting.
# C. elegans model of PD = C. elegans model of PD in vivo; cited from earlier work
# [3] = system: PD patients with constipation; experiment: Phase 2 trial Stage 2: CNS symptoms (UPDRS, MMSE, PDHQ, BDI-II); format: in vivo, human; settings: for PDHQ (Mean): baseline 1.3 (2.99); for BDI-II (Mean): baseline 10.9 (7.12)
# Experimental: (9) Unified Parkinson's Disease Rating Scale (UPDRS), which consists of 42 items in four subscales (Part I=Non-Motor Aspects of Experiences of Daily Living (nM-EDL) (1.1 cognitive impairment, 1.2 hallucinations and psychosis, 1.3 depressed mood; Part II=Motor Aspects of Experiences of Daily Living (M-EDL), Part III=Motor Examination, and Part IV=Motor Complications;
# Assessments were made at baseline and at the end of the fixed dose and washout periods. Circadian system status was evaluated by continuously monitoring wrist skin temperature (Thermochron iButton DS1921H; Maxim, Dallas) following published procedures (Sarabia et al. 2008).
# An exploratory analysis was done with respect to the sleep data, the body temperature data, mood, fatigue, hallucinations, cognition and other motor and non-motor symptoms of PD. Continuous measurements within a subject were compared with a paired t-test and continuous measurements between subject groups were compared with a two-group t-test. Categorical data were compared with a chi-squared test or a Fisher's exact test if the expected cell counts are too small for a chi-squared test.
# CNS symptoms were evaluated at baseline and at the end of the fixed dose period and the wash-out period (Table 11). Total UPDRS score was 64.4 at baseline, 60.6 at the end of the fixed dose period and 55.7 at the end of the wash-out period (p=0.002); similarly, the motor component of the UPDRS improved from 35.3 at baseline to 33.3 at the end of fixed dose to 30.2 at the end of wash-out (p=0.006). MMSE improved from 28.4 at baseline to 28.7 during treatment and to 29.3 during wash-out (p=0.0006). […] PDHQ improved from 1.3 at baseline to […] during treatment and 0.9 during wash-out (p=0.03). Hallucinations were reported by 5 patients at baseline and delusions in 1 patient. […] Unlike stool-related indices, the improvement in many CNS symptoms persisted during wash-out.
# [4] = system: PD patients with constipation; experiment: Phase 2 trial Stage 1: prokinetic response to single escalating oral doses; format: in vivo, human; settings: Stage 1, single oral dose
# Excerpt: as §2
# [5] = system: PD patients with constipation; experiment: Phase 2 trial Stage 2: adverse events; format: in vivo, human
# Experimental: as §1
# [6] = Stage 2, dosed 34, unrelated to ENT-01
compound,measurement,setting,value
"CC(C)[C@@H](CC[C@@H](C)[C@H]1CC[C@H]2[C@@H]3[C@H](O)C[C@H]4C[C@@H](NCCCNCCCCN)CC[C@]4(C)[C@H]3CC[C@]12C)OS(=O)(=O)O (single isomer, unassigned) [squalamine (ENT-01)]","CSBM, weekly average (mean, SD)","[1]; Stage 2, fixed dose, n = 34, baseline 1.2 (0.90), P 2.3 × 10^−8",3.8 /week and 3.8 (2.40) /week
same,"Suppository use / rescue medication, weekly average (mean, SD)","[1]; Stage 2, fixed dose, n = 34, baseline 1.8 (1.92), P 1.33 × 10^−5",0.3 /week and 0.3 (0.67) /week
same,"SBM, weekly average (mean, SD)","[1]; Stage 2, fixed dose, n = 34, baseline 2.6 (1.45), P 6.4 × 10^−6",4.5 /week and 4.5 (2.21) /week
same,"Consistency (Mean, SD)","[1]; Stage 2, wash-out, Bristol stool scale, baseline 2.7 (1.20), P vs. baseline 0.85",2.8 (1.39)
same,"CSBM (Mean, SD)","[1]; Stage 2, wash-out, baseline 1.2 (0.90), P wash-out vs. baseline 0.01",1.8 (1.19) /week
same,"PAQ-SYM (Mean, SD)","[1]; Stage 2, wash-out, baseline 1.3 (0.45), P vs. baseline 0.11",1.1 (0.60)
same,"PAQ-QOL (Mean, SD)","[1]; Stage 2, wash-out, baseline 1.4 (0.49), P vs. baseline 0.04",1.2 (0.63)
same,"Rescue meds (Mean, SD)","[1]; Stage 2, wash-out, baseline 1.8 (1.92), P vs. baseline 0.13",1.0 (1.40) /week
same,"SBM (Mean, SD)","[1]; Stage 2, wash-out, baseline 2.6 (1.45), P vs. baseline 0.16",3.2 (1.80) /week
same,"Ease (Mean, SD)","[1]; Stage 2, wash-out, ease of evacuation scale, baseline 3.2 (0.73), P vs. baseline 0.78",3.3 (0.81)
same,improvement of SBM/week,[1]; fixed dose vs baseline (2.6 to 4.5),73%
same,mean dose required for a prokinetic response,"[1]; patients with baseline ≥1 CSBM/week, relation to baseline severity p=0.00055",120 mg
same,CSBM/week,"[1]; Treatment arm (n = 6), fixed dose period, baseline 0.8",3.2 CSBM/week
same,CSBM/week,"[1]; Treatment arm (n = 6), randomized period (4-6 days), baseline 0.8",2.4 CSBM/week
same,CSBM/week,"[1]; Treatment arm (n = 6), washout, baseline 0.8",0.9 CSBM/week
same,CSBM/week,"[1]; patients later given placebo (n = 9), fixed dose period on drug, baseline 1.6",3.3 CSBM/week
same,"adverse event: Abdominal pain, Mild",[2],"2 (20) n, %"
same,"adverse event: Abdominal pain, Moderate",[2],"3 (30) n, %"
same,"adverse event: Diarrhea, Mild",[2],"1 (10) n, %"
same,"adverse event: Diarrhea, Moderate",[2],"3 (30) n, %"
same,"adverse event: Diarrhea, Severe",[2],"0 n, %"
same,"adverse event: Difficulty falling asleep, Mild",[2],"0 n, %"
same,"adverse event: Difficulty falling asleep, Moderate",[2],"0 n, %"
same,"adverse event: Dizziness, Mild",[2],"0 n, %"
same,"adverse event: Dizziness, Moderate",[2],"0 n, %"
same,"adverse event: Eye infection, Mild",[2],"0 n, %"
same,"adverse event: Eye infection, Moderate",[2],"0 n, %"
same,"adverse event: Flatulence, Mild",[2],"2 (20) n, %"
same,"adverse event: Flatulence, Moderate",[2],"0 n, %"
same,"adverse event: Headache, Mild",[2],"1 (10) n, %"
same,"adverse event: Headache, Moderate",[2],"0 n, %"
same,"adverse event: Increased urinary frequency, Mild",[2],"0 n, %"
same,"adverse event: Increased urinary frequency, Moderate",[2],"0 n, %"
same,"adverse event: Nausea, Mild",[2],"4 (40) n, %"
same,"adverse event: Nausea, Moderate",[2],"0 n, %"
same,"adverse event: Skin lesions-rash, Mild",[2],"0 n, %"
same,"adverse event: Skin lesions-rash, Moderate",[2],"0 n, %"
same,"adverse event: Urinary retention, Mild",[2],"0 n, %"
same,"adverse event: Urinary retention, Moderate",[2],"0 n, %"
same,"adverse event: Urinary tract infection, Mild",[2],"0 n, %"
same,"adverse event: Urinary tract infection, Moderate",[2],"0 n, %"
same,"adverse event: Vomiting, Mild",[2],"1 (10) n, %"
same,"adverse event: Vomiting, Moderate",[2],"0 n, %"
same,"adverse event: Worsening acid reflux, Mild",[2],"0 n, %"
same,"adverse event: Worsening acid reflux, Moderate",[2],"0 n, %"
same,"adverse event: Worsening hemorrhoid, Mild",[2],"0 n, %"
same,"adverse event: Worsening hemorrhoid, Moderate",[2],"0 n, %"
same,"adverse event: Blood in urine, Mild",[2]; unrelated to ENT-01,"1 (10) n, %"
same,"adverse event: Blood in urine, Moderate",[2]; unrelated to ENT-01,"0 n, %"
same,"adverse event: Loss of appetite, Mild",[2]; unrelated to ENT-01,"1 (10) n, %"
same,"adverse event: Loss of appetite, Moderate",[2]; unrelated to ENT-01,"0 n, %"
same,"adverse event: Lower GI bleed, Severe",[2]; unrelated to ENT-01,"0 n, %"
same,effect on formation of aggregates of αS,C. elegans model of PD,inhibit the formation of aggregates of αS
same,PDHQ (Mean),"[3]; Stage 2, fixed dose, n = 34, P 0.45",1.8
same,BDI-II (Mean),"[3]; Stage 2, fixed dose, n = 34, P 0.14",9.9
same,PDHQ (Mean),"[3]; Stage 2, wash-out, n = 34, P 0.03",0.9
same,BDI-II (Mean),"[3]; Stage 2, wash-out, n = 34, P 0.10",8.7
same,UPDRS Part 1 (NMS) (Mean),"[3]; Stage 2, wash-out, n = 34, baseline 11.6 (6.51), P 0.06",9.5
same,patients in whom hallucinations and delusions improved or disappeared,"[3]; during treatment, hallucinations in 5 patients and delusions in 1 patient at baseline",5 of 6
same,cumulative prokinetic response rate (patients with a CSBM within 24 hours of dosing),[4]; 25 mg,25%
same,cumulative prokinetic response rate (patients with a CSBM within 24 hours of dosing),[4]; 200 mg (maximum),80%
same,patients with diarrhea,"[5]; Stage 2, 15/34",44%
same,patients who withdrew during dosing because of diarrhea,"[5]; Stage 2, 34 dosed",2
same,"adverse event: Abdominal pain, Mild","[5]; Stage 2, dosed 34",4 n
same,"adverse event: Abdominal pain, Moderate","[5]; Stage 2, dosed 34",2 n
same,"adverse event: Diarrhea, Mild","[5]; Stage 2, dosed 34",12 n
same,"adverse event: Diarrhea, Moderate","[5]; Stage 2, dosed 34",2 n
same,"adverse event: Diarrhea, Severe","[5]; Stage 2, dosed 34",1 n
same,"adverse event: Difficulty falling asleep, Mild","[5]; Stage 2, dosed 34",1 n
same,"adverse event: Difficulty falling asleep, Moderate","[5]; Stage 2, dosed 34",0 n
same,"adverse event: Dizziness, Mild","[5]; Stage 2, dosed 34",7 n
same,"adverse event: Dizziness, Moderate","[5]; Stage 2, dosed 34",1 n
same,"adverse event: Eye infection, Mild","[5]; Stage 2, dosed 34",1 n
same,"adverse event: Eye infection, Moderate","[5]; Stage 2, dosed 34",0 n
same,"adverse event: Flatulence, Mild","[5]; Stage 2, dosed 34",1 n
same,"adverse event: Flatulence, Moderate","[5]; Stage 2, dosed 34",0 n
same,"adverse event: Headache, Mild","[5]; Stage 2, dosed 34",3 n
same,"adverse event: Headache, Moderate","[5]; Stage 2, dosed 34",0 n
same,"adverse event: Increased urinary frequency, Mild","[5]; Stage 2, dosed 34",2 n
same,"adverse event: Increased urinary frequency, Moderate","[5]; Stage 2, dosed 34",0 n
same,"adverse event: Nausea, Mild","[5]; Stage 2, dosed 34",18 n
same,"adverse event: Nausea, Moderate","[5]; Stage 2, dosed 34",1 n
same,"adverse event: Skin lesions-rash, Mild","[5]; Stage 2, dosed 34",3 n
same,"adverse event: Skin lesions-rash, Moderate","[5]; Stage 2, dosed 34",0 n
same,"adverse event: Urinary retention, Mild","[5]; Stage 2, dosed 34",1 n
same,"adverse event: Urinary retention, Moderate","[5]; Stage 2, dosed 34",0 n
same,"adverse event: Urinary tract infection, Mild","[5]; Stage 2, dosed 34",1 n
same,"adverse event: Urinary tract infection, Moderate","[5]; Stage 2, dosed 34",2 n
same,"adverse event: Vomiting, Mild","[5]; Stage 2, dosed 34",2 n
same,"adverse event: Vomiting, Moderate","[5]; Stage 2, dosed 34",0 n
same,"adverse event: Worsening acid reflux, Mild","[5]; Stage 2, dosed 34",4 n
same,"adverse event: Worsening acid reflux, Moderate","[5]; Stage 2, dosed 34",0 n
same,"adverse event: Worsening hemorrhoid, Mild","[5]; Stage 2, dosed 34",1 n
same,"adverse event: Worsening hemorrhoid, Moderate","[5]; Stage 2, dosed 34",0 n
same,"adverse event: Lower GI bleed, Severe","[5]; Stage 2, dosed 34, colonic diverticulosis, polyp, patient on aspirin, Plavix and naproxen, unrelated to ENT-01",1 n
same,"adverse event: Blood in urine, Mild",[5]; [6],0 n
same,"adverse event: Blood in urine, Moderate",[5]; [6],0 n
same,"adverse event: Loss of appetite, Mild",[5]; [6],0 n
same,"adverse event: Loss of appetite, Moderate",[5]; [6],0 n
same,patients terminated prior to completion because of recurrent dizziness,"[5]; Stage 2, two of 34 dosed",5.8%
